# Legend:
# SNORF25 [1] = target: T1, SNORF25 (Homo sapiens, UniProt Q8TDV5); assay: Stimulation of cAMP release by CHO cells stably expressing hSNORF25 receptors; type: cell-based; parameters: expressed in transfected cells
# T1 sequence (Q8TDV5 1-335): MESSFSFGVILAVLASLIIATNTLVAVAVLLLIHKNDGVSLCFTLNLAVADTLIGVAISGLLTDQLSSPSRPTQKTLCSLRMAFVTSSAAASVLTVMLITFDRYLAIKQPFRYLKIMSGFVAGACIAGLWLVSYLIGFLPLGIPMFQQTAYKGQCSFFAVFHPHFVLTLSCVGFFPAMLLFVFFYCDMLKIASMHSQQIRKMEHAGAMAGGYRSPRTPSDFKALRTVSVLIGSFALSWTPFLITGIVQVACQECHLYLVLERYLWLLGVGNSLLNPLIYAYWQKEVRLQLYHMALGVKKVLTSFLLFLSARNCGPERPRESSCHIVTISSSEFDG
# Protocol: CHO cells are grown on 150 mm plates in HAM's F-12 medium with supplements (10% bovine calf serum, 4 mM L-glutamine and 100 units/ml penicillin/100 μg/ml streptomycin) at 37° C., 5% CO2. Stock plates of CHO cells are trypsinized and split 1:8 every 3–4 days.
# Heterologous DNA can be stably incorporated into host cells, causing the cell to perpetually express a foreign protein. Methods for the delivery of the DNA into the cell are similar to those described above for transient expression but require the co-transfection of an ancillary gene to confer drug resistance on the targeted host cell. The ensuing drug resistance can be exploited to select and maintain cells that have taken up the DNA. An assortment of resistance genes are available including but not restricted to neomycin, kanamycin, and hygromycin. For the purposes of studies concerning the receptor of this invention, stable expression of a heterologous receptor protein is typically carried out in, mammalian cells including but not necessarily restricted to, CHO, HEK293, LM(tk−), etc.
# (§1) The receptor-mediated stimulation or inhibition of cyclic AMP (cAMP) formation may be assayed in cells expressing the receptors. According to one method, cells are plated in 96-well plates or other vessels and preincubated in a buffer such as HEPES buffered saline (NaCl (150 mM), CaCl2 (1mM), KCl (5 mM), glucose (10 mM)) supplemented with a phosphodiesterase inhibitor such as 5 mM theophylline, with or without protease inhibitor cocktail (For example, a typical inhibitor cocktail contains 2 μg/ml aprotinin, 0.5 mg/ml leupeptin, and 10 μg/ml phosphoramidon.) for 20 min at 37° C., in 5% CO2. Test compounds are added with or without […] and incubated for an additional 10 min at 37° C. The medium is then aspirated and the reaction stopped by the addition of 100 mM HCl or other methods. The plates are stored at 4° C. for 15 min, and the cAMP content in the stopping solution is measured by radioimmunoassay. Radioactivity may be quantified using a gamma counter equipped with data reduction software. Specific modifications may be performed to optimize the assay for the receptor or to alter the detection method of cAMP.
# as §1, with “According” for “The receptor-mediated stimulation or inhibition of cyclic AMP (cAMP) formation may be assayed in cells expressing the receptors. According”, “a second” for “one”, “washed 2 times with” for “plated in 96-well plates or other vessels and preincubated in a buffer such as”, “saline, as described above, and incubated overnight. On the day of the experiment, cells are washed 2 times with HEPES” for “saline (NaCl (150 mM), CaCl2 (1mM), KCl (5 mM), glucose (10 mM))”
# Several other closely related analogues of PAF namely Lyso-PAF with different carbon chains also stimulated cAMP.
# SNORF25 [2] = target: T1, SNORF25; assay: Cl- currents via phospholipase C pathway in SNORF25 oocytes; type: cell-based; parameters: from linearized plasmids or PCR products containing the complete coding region of the genes; expressed in transfected cells; host or cells: Xenopus laevis oocytes injected with SNORF25 mRNA (with or without CFTR mRNA)
# Protocol: Oocytes are harvested from Xenopus laevis and injected with mRNA transcripts as previously described (Quick and Lester, 1994; Smith et al., 1997). The test receptor of this invention and Gα subunit RNA transcripts are synthesized using the T7 polymerase (“Message Machine,” Ambion) from linearized plasmids or PCR products containing the complete coding region of the genes. Oocytes are injected with 10 ng synthetic receptor RNA and incubated for 3–8 days at 17 degrees. Three to eight hours prior to recording, oocytes are injected with 500 pg promiscuous Gα subunits mRNA in order to observe coupling to Ca^++ activated Cl^− currents.
# Heterologous expression of GPCRs in Xenopus oocytes has been widely used to determine the identity of signaling pathways activated by agonist stimulation (Gundersen et al., 1983; Takahashi et al., 1987). Activation of the phospholipase C (PLC) pathway is assayed by applying a test compound in ND96 solution to oocytes previously injected with mRNA for the SNORF25 receptor and observing inward currents at a holding potential of approximately −80 mV. The appearance of currents that reverse at −25 mV and display other properties of the Ca^++-activated Cl^− channel is indicative of receptor-activation of PLC and release of IP3 and intracellular Ca^++.
compound,measurement,setting,value
"CC1=C(/C=C/C(C)=C/C=C/C(C)=C/C(=O)O)C(C)(C)CCC1 [ATRA, all-trans-retinoic acid]",potency lower than PAF(C18),"SNORF25 [1]; cAMP release, SNORF25 stable CHO cells (FIG. 11B)",~3 fold
same,% of PAF(C18) Response,SNORF25 [1]; maximum response as % of maximum response produced by PAF(C18) (taken as 100%),105%
same,EC50,"SNORF25 [1]; mean ± S.E.M., at least 3 experiments, CHO cells stably expressing hSNORF25",1440 ± 652 nM
same,responses in oocytes expressing chimeric G-proteins,SNORF25 [2]; chimeric G-proteins coupling Gi and Go GPCRs to phospholipase C pathway,not evoked
same,Cl- currents in oocytes lacking CFTR,"SNORF25 [2]; oocytes lacking CFTR, Gq-mediated phospholipase C pathway",did not stimulate Cl^− currents
